Measurements: patent US20040265265A1, “Odor control composition and process” (H&S CHEMICAL COMPANY, INC., priority 2001, published 2004)

Assays:
[1] = limit of solubility in water; details: at room temperature in water
[2] = stability of solutions as a function of pH; assay type: physicochemical; details: below a pH of 6
Description: As is discussed above the pH range for CHT and CH-BENZ solutions for use in this invention can be from about 6- 14. […] While the solutions of this invention are effective above a pH of 10.0, solutions having a pH of 10.0 can only be used for industrial applications, due to their caustic nature.
This stability is important in domestic applications of this invention where long shelf life is very desirable.

Compound	limit of solubility [1]	stability in acidic medium [2]
Cc1ccc(S(=O)(=O)[N-]Cl)cc1.[Na+] [CHT, Chloramine-T]	about 15%	tend to decompose
O=C([O-])c1ccc(S(=O)(=O)NCl)cc1.[Na+] [CH-BENZ, N-Chloro-4-Carboxybenzenesulfonamide sodium salt]	about 20%	tend to decompose
